Target: T1, human 5-HT3A receptor (Homo sapiens, UniProt P46098)
T1 construct: host or cells: Xenopus laevis oocytes injected with in vitro transcribed mRNA
T1 sequence (P46098 24-478): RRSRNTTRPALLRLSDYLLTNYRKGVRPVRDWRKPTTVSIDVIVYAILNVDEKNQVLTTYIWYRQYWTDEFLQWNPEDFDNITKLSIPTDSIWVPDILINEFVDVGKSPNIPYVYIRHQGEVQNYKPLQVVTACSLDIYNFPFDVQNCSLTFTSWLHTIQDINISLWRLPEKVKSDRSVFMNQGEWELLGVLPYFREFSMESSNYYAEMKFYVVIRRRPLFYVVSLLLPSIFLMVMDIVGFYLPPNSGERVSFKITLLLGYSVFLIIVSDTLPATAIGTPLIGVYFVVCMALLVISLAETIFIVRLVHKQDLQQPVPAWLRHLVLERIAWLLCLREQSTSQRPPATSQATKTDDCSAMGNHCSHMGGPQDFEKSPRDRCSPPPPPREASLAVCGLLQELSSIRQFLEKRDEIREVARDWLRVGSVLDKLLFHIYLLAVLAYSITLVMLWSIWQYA
Assay: cell-based
Format: cell-based
Protocol: Human 5-hydroxytryptamine (serotonin) receptor 3A cDNA (Genebank number: BC004453) was obtained from OriGene (Rockville, MD, USA). Figure 1A represents the chemical structure of two ergot alkaloids, EG and EC, obtained from Sigma-Aldrich (St. Louis, MO, USA). These ergot alkaloids were diluted in bath solution after dissolving in dimethyl sulfoxide (DMSO) for use as stock solutions. The final treatment concentration of DMSO was less than 0.01%. Xenopus laevis frogs were obtained from the Korean Xenopus Resource Center for Research (KXRCR000001, Chuncheon, Gangwondo, Korea), and other agents were purchased from Sigma-Aldrich.
To isolate oocytes, female Xenopus laevis were put into a container filled with ice and left for about one hour. When the blood vessels contracted and fell into a state similar to hibernation, the abdomen was incised, and the ovaries were removed and cut into small pieces in Ca^2+-free OR2 solution (82.5 mM NaCl, 2.5 mM KCl, 1 mM MgCl2, and 5 mM HEPES, pH 7.4) with 2 mg/mL collagenase. After a 2 h agitation to digest the follicle membranes, isolated oocytes in stages Ⅴ and Ⅵ were selected and washed repeatedly. The selected oocytes were maintained in ND96 incubation solution (96 mM NaCl, 2 mM KCl, 1.8 mM CaCl2, 1 mM MgCl2, 5 mM HEPES, 2.5 mM sodium pyruvate, and 50 µg/mL gentamycin, pH 7.4) at 16–18 °C. The solution containing the oocytes was changed twice a day and stored in a shaking incubator. Under the microscope, the end of a glass capillary was broken and fitted with a 20 µm diameter needle and filled with mineral oil, discharging air bubbles from the tip. When the Xenopus oocytes were ready for injection, 50 ng of mRNA was injected with a nanoliter injector (Drummond Scientific, Vernon Hills, IL, USA). The recording was started after two days of sufficient shaking incubation in ND96 solution. Surgery, microinjections, and the other handling of Xenopus laevis followed the standard protocols.
The oocytes in which mRNA was expressed during the incubation period allowed for the estimation of channel or receptor properties for observing drug and ligand potential interactions using a two-electrode voltage clamp (OC-725C; Warner Instruments, Hamden, CT, USA) and Digidata (1322A; Molecular Devices, Sunnyvale, CA, USA). The two-electrode voltage clamp had voltage and current electrodes that stably maintained the potential and delivered the transmembrane potential and high current. […] A computer transferred the converted output amplitude of the voltage clamp amplifiers to an input digital converter using pClamp 10 software (Axon Instruments, Union City, CA, USA). The voltage and current electrodes were filled with 3 M KCl (0.3–0.7 MΩ) and analyzed at a −80 mV holding potential. The oocytes were placed in the chamber and exposed to a ND96 solution at a flow rate of 2 mL per minute. In the electrophysiological experiments, the voltage ramp recording was performed at room temperature, and a current from −80 to +60 mV was applied to determine the current and voltage relationships. Inward peak traces of the 5-HT3A receptor and voltage ramp traces were converted to a value through Clampfit 9.0 (Molecular Devices, San Jose, CA, USA).
In the experiments, all data were represented as the mean ± SEM (standard error of the mean) of the 5-HT-stimulated inward peak in the 5-HT3A receptors. […] All curves plotted through the Hill equation were generated using Origin Pro 7.0 (OriginLab, Northampton, MA, USA). The significance of differences between the control and chanoclavine treatment was determined according to the p-value in the Student’s t-test. p-values of less than 0.05 were considered statistically significant.

| Compound | Imax of normalized 5-HT concentration-response current | inhibition at 100 µM (100 µM compound with 100 µM 5-HT, −80 mV, read-out: inhibition of I5-HT) [%] | maximum inhibition (Imax) (Hill fit, co-application with 100 µM 5-HT, −80 mV) [%] | effect of co-application with 5-HT on current (various concentrations with 100 µM 5-HT) | effect of compound alone (without 5-HT) (−80 mV holding potential, data not shown) |
| --- | --- | --- | --- | --- | --- |
| NCCc1c[nH]c2ccc(O)cc12 [5-HT, 5-hydroxytryptamine, reference compound] | 99.1 ± 14.2 |  |  |  |  |
| C[C@@H](CO)NC(=O)[C@@H]1C=C2c3cccc4[nH]cc(c34)C[C@H]2N(C)C1 [ergonovine, reference compound] |  | 1.1 ± 4.8 | 15 ± 5.7 | did not show any noticeable reduction | no change |

From PMC7956620 (Molecules, 2021)
